The source of these data is patent US9809592B2, “Isopropyl triazolo pyridine compounds” (Eli Lilly and Company, priority 2014, dated 2017).

pEC50, pKi: −log10 of the molar value. Bounds are passed on as bounds.

The target of one test is mGPR40 (Mus musculus, UniProt Q76JU9). Briefly: Mouse beta-arrestin agonist assay with 1% FBS (U205 cells expressing mFFAR1). It is filed as cell-based. The settings on record: n=3. The source says: (§1) Human embryonic kidney (hEK293)-hFFAR1 cells are purchased from DiscoveRx. Human osteosarcoma (U205) cells expressing mFFAR1 are developed by DiscoveRX. These cells co-express the Prolink (PK)-tagged GPR40 and the Enzyme Acceptor (EA)-tagged beta-arrestin fusion proteins. If activation of the GPR40 stimulates beta-arrestin recruitment, it would force complementation of the beta galactosidase (B-gal) enzyme fragments, forming a B-gal enzyme that generates a chemiluminescent signal using the DiscoveRx PathHunter detection kit. Cells are incubated overnight at 5,000 cells/well in 384 well plates in culture media containing 1% FBS (fetal bovine serum). Serial diluted compounds in DMSO (2× dilutions to generate 20 concentrations) are step down diluted in culture media containing 1% FBS (fetal bovine serum) and added to cells with a final top concentration starting of 100 μM. After addition of compounds, cells are incubated for 90 min at 37° C. in 5% CO2 incubator, and DiscoveRX kit detection reagents are added. Measurement of the chemiluminescent signal is ascertained with the Envision reader, after a 1-hour incubation at room temperature. Data are fit to a 4 parameter-fit logistics to determine EC50 values, % activity is measured versus maximum response to an internal standard GPR40 agonist standard, TAK875, at 1 μM.

Another test has as its target T1, human GPR40 (hGPR40) (Homo sapiens, UniProt O14842).
T1 construct: expressed in transfected cells; host or cells: HEK293 (membranes)
Kind of test: Radioligand competition binding assay with [3H]-TAK-875, HEK293 membranes. As to conditions: 5 nM [3H]-TAK-875; Cheng-Prusoff; mean, SEM. The source says:
Competition curves are plotted as the percent specific inhibition versus concentration of compound and analyzed using a four parameter nonlinear regression fit with variable slope. […] See Cheng, Y. and Prusoff, W. H. (1973) “Relationship between the inhibition constant (Ki) and the concentration of inhibitor which causes 50 percent inhibition (IC50) of an enzymatic reaction”, Biochem Pharmacol 22(23):3099-108.
A general note: Loss of bound radioactivity is the signal in a displacement assay; it reports binding, not function.

The next test relates to PPAR. Briefly: PPAR α, δ, and γ functional assays (overall statement). The class given is cell-based. As to conditions: PPARα, PPARδ and PPARγ reporter assays; efficacy of <20% is considered negative. From the text: (§2) Because GPR40 is known to be activated by ligands to PPARγ, exemplified compounds are examined in Ga14 PPARα, Ga14 PPARδ, and PPARγ reporter assays to determine the selectivity of exemplified compounds. CV1 cells, which are derived from the renal tissue of an African green monkey, are transfected with various receptor and reporter plasmids using Fugene. For the Ga14 PPARα and PPARδ assays, a reporter plasmid containing five tandem copies of the yeast transcription protein Ga14 response element, cloned upstream of a firefly luciferase gene driven by the major late promoter of adenovirus, is transfected together with a Simian Virus 40 (SV40) driven plasmid constitutively expressing a hybrid protein containing the Ga14 DNA binding domain (DBD), and either the PPARα or PPARδ ligand binding domain. […] After 24 hours incubation with compounds, cells are lysed and luciferase activity is determined as a measure of receptor activation by luminescence. […] The maximum percent stimulation is determined versus maximum stimulation obtained with 10 μM of an appropriated PPAR agonist reference compound, 2-methyl-2-(4-{2-methyl-3-[2-(phenylcarbonyl)-4-(trifluoromethoxy)phenoxy]propoxy}phenoxy)propanoic acid. […]

A further test deals with T2, PPARδ (Homo sapiens, UniProt Q03181).
T2 construct: expressed in transfected cells; host or cells: CV1 (African green monkey kidney)
T2 sequence (Q03181 211-439 limits assumed): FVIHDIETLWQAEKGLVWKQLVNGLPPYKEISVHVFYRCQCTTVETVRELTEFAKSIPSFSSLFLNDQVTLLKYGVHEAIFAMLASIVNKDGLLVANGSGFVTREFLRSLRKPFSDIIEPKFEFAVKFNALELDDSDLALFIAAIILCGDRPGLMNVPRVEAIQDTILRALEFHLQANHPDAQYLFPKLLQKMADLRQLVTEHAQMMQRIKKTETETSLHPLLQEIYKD
Briefly: Ga14 PPARδ reporter functional assay in CV1 cells. It is filed as cell-based. As to conditions: 24 hours incubation, luciferase.
Text: as §2

Test [1] has as its target T3, hGPR40 (Homo sapiens, UniProt O14842). Kind of test: Calcium Flux Primary Assay (FLIPR). As to conditions: mean, SEM. It is filed as cell-based. More on the design: expressed in transfected cells; host or cells: HEK293. The protocol:
HEK293 cells over expressing the human GPR40 cDNA maintained in Dulbecco's modified Eagle's medium with F12 medium in 3:1 ratio supplemented with 10% FBS and 800 μg/ml geneticin at 37° C. and 5% CO2 are employed for the study. Agonist assays are performed using a Calcium 4 Dye assay kit (Molecular Devices) in the presence or absence of 0.1% fatty acid free BSA in the assay buffer (1×HBSS (Hank's Balanced Salt Solution) & 20 mM HEPES (4-(2-hydroxyethyl)-1-piperazineethanesulfonic acid). Receptor activation is measured as an increase in intracellular calcium using the Fluorometric Imaging Plate Reader (FLIPR). Maximum change in fluorescence over the base line is used to determine the agonist response. The EC50 value of the compound is calculated using Excel Fit software (version 4; IDBS) by plotting concentration vs relative fluorescence units (RFUs). […] (Mean±SEM; SEM=standard error of the mean.)
Target sequence in this assay (O14842 whole entry): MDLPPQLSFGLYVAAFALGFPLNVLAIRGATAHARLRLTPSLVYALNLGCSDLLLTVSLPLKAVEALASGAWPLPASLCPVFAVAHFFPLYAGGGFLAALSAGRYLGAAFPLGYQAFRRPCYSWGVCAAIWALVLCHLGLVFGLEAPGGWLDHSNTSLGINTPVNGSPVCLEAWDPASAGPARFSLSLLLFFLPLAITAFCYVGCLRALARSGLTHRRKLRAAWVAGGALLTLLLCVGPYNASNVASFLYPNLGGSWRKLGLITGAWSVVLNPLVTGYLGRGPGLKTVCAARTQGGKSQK
On the technique in general: A change in cytosolic calcium serves as a functional read-out for many receptors and channels.

The next test deals with T4, Human GPR40 membranes (Homo sapiens, UniProt O14842).
T4 construct: expressed in transfected cells; host or cells: HEK293 (membranes)
Kind of test: Competition binding kinetics, receptor residence time. As to conditions: 6-8 nM [3H] TAK875; mean, SEM, n=4; read-out: GPR40 Residence time, τ. The protocol:
The association and dissociation rates of unlabeled compounds are quantified using the method described by Motulsky, H. J. and L. C. Mahan (1984), “The kinetics of competitive radioligand binding predicted by the law of mass action” Mol Pharm 25(1): 1-9. Human GPR40 membranes are incubated at various time points with 6-8 nM [^3H] TAK875 in the absence or presence of 1× Ki, 3× Ki, or 10× Ki unlabeled compound. Separation of bound and free radioligand is performed using rapid-wash filtration onto glass fiber filters and counted in a liquid scintillation counter. Rates are calculated by fitting the data to the kinetics of competitive binding model in GraphPad Prism 6, version 6.03 for Windows, GraphPad Software, La Jolla Calif. USA, www.graphpad.com.

Test [2] deals with T3, hGPR40. Briefly: Human beta-arrestin agonist assay with 1% FBS (hEK293-hFFAR1 cells). It is filed as cell-based. Also noted: host or cells: HEK293 (hEK293-hFFAR1). As to conditions: n=2.
Text: as §1
Target sequence in this assay (O14842 whole entry): as above
Target sequence in this assay (P32121 whole entry partner): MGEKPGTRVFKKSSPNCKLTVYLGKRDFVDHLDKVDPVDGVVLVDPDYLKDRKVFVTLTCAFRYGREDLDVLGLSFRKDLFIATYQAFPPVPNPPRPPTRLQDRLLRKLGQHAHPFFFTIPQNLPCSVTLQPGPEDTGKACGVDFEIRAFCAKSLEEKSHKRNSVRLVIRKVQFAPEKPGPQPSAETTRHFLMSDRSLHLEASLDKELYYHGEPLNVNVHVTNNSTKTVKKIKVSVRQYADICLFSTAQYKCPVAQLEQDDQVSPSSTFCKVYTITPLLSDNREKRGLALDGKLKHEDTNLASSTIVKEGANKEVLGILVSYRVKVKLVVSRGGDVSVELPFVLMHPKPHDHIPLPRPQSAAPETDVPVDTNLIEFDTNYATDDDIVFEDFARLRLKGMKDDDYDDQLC

In a further test the target is T5, PPARα (Homo sapiens, UniProt Q07869).
T5 construct: expressed in transfected cells; host or cells: CV1 (African green monkey kidney)
T5 sequence (Q07869 239-466 limits assumed): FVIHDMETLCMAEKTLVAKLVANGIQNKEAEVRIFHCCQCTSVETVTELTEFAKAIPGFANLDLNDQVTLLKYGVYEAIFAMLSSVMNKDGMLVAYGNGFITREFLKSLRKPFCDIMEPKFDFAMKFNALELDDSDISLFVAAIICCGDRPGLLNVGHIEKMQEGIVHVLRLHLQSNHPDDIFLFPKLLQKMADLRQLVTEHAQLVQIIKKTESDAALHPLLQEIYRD
Briefly: Ga14 PPARα reporter functional assay in CV1 cells. The class given is cell-based. As to conditions: 24 hours incubation, luciferase.
Text: as §2

In the next test the target is T6, PPARγ (Homo sapiens, UniProt P37231).
T6 construct: expressed in transfected cells; host or cells: CV1 (African green monkey kidney)
T6 sequence (P37231 1-505): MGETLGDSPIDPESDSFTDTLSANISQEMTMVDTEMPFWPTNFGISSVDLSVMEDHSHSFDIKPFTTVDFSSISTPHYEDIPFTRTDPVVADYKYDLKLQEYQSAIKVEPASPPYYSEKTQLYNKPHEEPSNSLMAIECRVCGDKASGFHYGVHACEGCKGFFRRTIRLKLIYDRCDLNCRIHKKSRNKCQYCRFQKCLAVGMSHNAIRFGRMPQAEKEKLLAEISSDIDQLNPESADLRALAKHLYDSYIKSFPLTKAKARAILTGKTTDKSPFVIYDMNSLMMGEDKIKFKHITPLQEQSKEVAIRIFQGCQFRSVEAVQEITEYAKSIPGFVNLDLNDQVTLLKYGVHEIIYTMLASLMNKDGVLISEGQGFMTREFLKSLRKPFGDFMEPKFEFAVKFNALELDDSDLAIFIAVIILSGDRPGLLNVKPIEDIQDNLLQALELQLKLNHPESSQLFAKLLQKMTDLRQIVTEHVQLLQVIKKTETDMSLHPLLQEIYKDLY
T6 sequence (P19793 1-462 partner): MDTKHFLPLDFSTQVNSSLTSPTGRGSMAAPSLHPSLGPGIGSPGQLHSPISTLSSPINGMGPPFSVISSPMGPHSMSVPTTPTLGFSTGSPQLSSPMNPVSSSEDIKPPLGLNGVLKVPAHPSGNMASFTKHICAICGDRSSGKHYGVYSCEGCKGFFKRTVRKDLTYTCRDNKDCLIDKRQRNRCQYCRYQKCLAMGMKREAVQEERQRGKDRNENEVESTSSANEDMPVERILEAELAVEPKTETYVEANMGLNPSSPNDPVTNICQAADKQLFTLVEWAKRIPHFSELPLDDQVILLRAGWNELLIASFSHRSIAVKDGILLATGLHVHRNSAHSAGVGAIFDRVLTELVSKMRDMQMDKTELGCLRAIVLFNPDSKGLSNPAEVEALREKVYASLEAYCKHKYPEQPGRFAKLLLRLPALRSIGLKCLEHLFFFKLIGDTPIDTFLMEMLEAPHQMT
Kind of test: PPARγ reporter functional assay in CV1 cells. It is filed as cell-based. As to conditions: PPARγ and RXRα, 24 hours incubation, luciferase.
Text: as §2

[3] abbreviates: versus maximum response to TAK875 at 1 μM.

mGPR40, sequence (Q76JU9 whole entry, the tested form may be a part): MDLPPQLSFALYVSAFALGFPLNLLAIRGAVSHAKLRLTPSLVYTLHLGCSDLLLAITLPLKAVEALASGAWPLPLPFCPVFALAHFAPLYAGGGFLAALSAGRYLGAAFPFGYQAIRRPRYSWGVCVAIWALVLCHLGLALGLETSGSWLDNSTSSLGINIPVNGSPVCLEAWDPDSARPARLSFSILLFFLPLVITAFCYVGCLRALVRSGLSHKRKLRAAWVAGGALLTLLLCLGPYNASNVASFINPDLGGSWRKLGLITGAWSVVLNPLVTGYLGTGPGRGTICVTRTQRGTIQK
mGPR40, sequence (P32121 whole entry partner, the tested form may be a part): as the sequence (P32121 whole entry partner) above
T4 sequence (O14842 whole entry): as the sequence (O14842 whole entry) above
T1 sequence (O14842 whole entry): as above

A word on the pEC50: it is the EC50 on a negative log10 scale, so that one unit is a factor of ten. By pKi is commonly meant −log10 of the Ki, conventionally taken in molar units. Low values mean a high Ki, high ones a low Ki. Turning to `CC#C[C@@H](CC(=O)O)c1ccc(OCc2cc(-c3c(C)cc(OC)cc3C)c3nc(C(C)C)nn3c2)cc1` [Example 1, (S)-3-{4-[2-Isopropyl-8-(4-methoxy-2,6-dimethyl-phenyl)-[1,2,4]triazolo[1,5-a]pyridin-6-ylmethoxy]-phenyl}-hex-4-ynoic acid], the pEC50 at mGPR40 (1% FBS, 90 min, mean, SEM, read-out: mGPR40 b-arrestin EC50) is 8.31; on PPARδ it was 5.40; on hGPR40 [1] (HEK293 cells over expressing human GPR40) it was 6.61; at hGPR40 [2] (1% FBS, 90 min, mean, SEM, read-out: hGPR40 b-arrestin EC50), 7.51; at PPARα it was below 5.00; on PPARγ it was 5.65. Besides, the “% stimulation max (FA), mGPR40 b-arrestin” value on mGPR40 (setting [3]) is reported as 149%. The pKi on human GPR40 (hGPR40) is 7.80. For the same compound, the “PPAR activity / efficacy (in words)” value in the test with PPAR is “weak PPAR activity”. For the same compound, on hGPR40 [1] (maximal response compared to natural ligand linoleic acid), the efficacy was 78.7%. For the same compound, the residence time at Human GPR40 membranes came to 169 min. Besides, the “% stimulation max (FA), hGPR40 b-arrestin” value on hGPR40 [2] (setting [3]) is reported as 170%.
